Measurements published in patent US10363239B2, “Method for inhibiting growth of cancer cells” (Pain Therapeutics, Inc., priority 2013, dated 2019).

Legend:
Type in all cases: cell-based, human
[1] = test system: primary neuroendocrine tumor cells; experiment: Cell proliferation by Ki67 and PCNA (Western blotting); details: 1 nM; 4 days
[2] = test system: GTP-bound K-ras in melanoma cells; experiment: Active K-ras (GTP-bound K-ras) Raf1 RBD pull-down assay; details: 0.1, 0.5, 1 and 5 nM; 4-day treatment
Method: (§1) FIGS. 31A and 31B illustrate the effects of illustrative Compound C0105 on levels of active K-ras (GTP-bound K-ras), assessed using the agarose bead-bound Raf1 RBD pull-down assay in melanoma, two different pancreatic cancerous cell lines (MiaPaCa2 and BxPc3) and a glioblastoma cell line (U87). The cells were treated (contacted) with zero (vehicle), 0.1, 0.5, 1 and 5 nM Compound C0105 as previously discussed. The thus obtained GTP-bound K-ras was subjected to Western blotting using anti-ras antibodies for identification, the blot densities determined and statistically analyzed as discussed previously.
(§2) In a separate series of studies, the level of active K-RAS (GTP-bound K-RAS) was determined by precipitation using Raf RBD-conjugated agarose beads from 100 μg of lysates of cancer cells (prepared as described above) following 4-day treatment with varying concentrations of Compound C0105. To ascertain even loading, actin in the cell lysates was immunoprecipitated with goat anti-actin. The precipitates were collected by centrifugation, washed and the active K-RAS and actin eluted by boiling for 5 min in 1×SDS-PAGE. The levels of active K-RAS and actin in 50 μg of cell lysates were size-fractionated on 12% SDS-PAGE, electrophorectically transferred to nitrocellulose membranes and determined by Western blotting with specific monoclonal antibodies against K-RAS and actin.

[3] = test system: GTP-bound K-ras in BxPc3 cells; experiment: as above; details: 0.1, 0.5, 1 and 5 nM; 4-day treatment
Method: as §1, §2

[4] = test system: GTP-bound K-ras in MiaPaCa2 cells; experiment: as above; details: 0.1, 0.5, 1 and 5 nM; 4-day treatment
Method: as §1, §2

[5] = test system: GTP-bound K-ras in glioblastoma cell line (U87); experiment: as above; details: 0.1, 0.5, 1 and 5 nM; 4-day treatment
Method: as §1, §2

glioblastoma cells = experiment: [3H]thymidine incorporation; details: 0.1-5 nM; 96 hours
Method: (§3) The effect of Compound C0105 on cell proliferation was determined by the level of [^3H]thymidine incorporation in glioblastoma, melanoma and small-cell lung carcinoma cells. Cells contacted with vehicle or 0.1-5 nM Compound C0105 were incubated with 5 μCi/ml of [^3H]thymidine for 96-hours. Cells were washed and the cell content of [^3H]thymidine was quantified using scintillation spectrometry. […] N=4. **p<0.05, *p<0.01 compared to vehicle (open bars).

melanoma cells [6] = experiment: [3H]thymidine incorporation; details: 0.1-5 nM; 96 hours
Method: as §3

[7] = test system: small-cell lung carcinoma cells; experiment: [3H]thymidine incorporation; details: 0.1-5 nM; 96 hours
Method: as §3

[8] = test system: pancreatic cancer MiaPaCa2 cells; experiment: [3H]glucose uptake; details: 0.1-5 nM; 4 days
Method: (§4) FIG. 1A through FIG. 1M illustrate the effects of various FLNA-binding compounds on glucose uptake in glioblastoma, melanoma, breast and pancreatic cancer cell lines, along with appropriate non-cancerous primary cell controls. Cells were grown in the absence or presence of 0.1-5 nM indicated compounds for 4 days. Following brief washes with PBS, cells were serum-deprived for 4 hours and then incubated in oxygenated Kreb's Ringer containing 0.1 μCi [^3H]glucose for 2 hours under constant oxygenation. The reaction was terminated by removal of the incubation medium, and cells were washed and scraped off to determine the amounts of [^3H]glucose in cells by scintillation spectrometry. […] N=5-6. […] . […] . To determine the effect of Compound C0105 on glucose utilization, the cancer and primary normal cells were plated extremely thinly (10%). Once cells attached, Compound C0105 was added at 0.1, 0.5, 1 or 5 nM in the medium twice daily (6 hours apart) for 4 days. The cells were serum-deprived (glucose deprived) for 2 hours. Cells were then rinsed with 1 ml PBS and glucose uptake was assessed by contacting the cells with [^3H]glucose (0.01 uCi/l ml) in Kreb's Ringer for 2 hours. Cells were then rinsed with 1 ml PBS 3 times, scraped off and their glucose content counted by liquid scintillation spectrophotometry.

[9] = test system: breast cancer HTB-22 cells; experiment: [3H]glucose uptake; details: 0.1-5 nM; 4 days
Method: as §4

melanoma cells [10] = experiment: Glucose deprivation-induced apoptosis markers (cleaved PARP-1, caspase-3) by Western blotting; details: 1 nM; Day 3 and 4
Method: . Cell density was assessed at day 3 and 4. […] . Data are mean±S.E.M. of ratios (FIG. 4B) and % inhibition (FIG. 4C). […] N=5. *p<0.01 compared to Day 0. #p<0.01 compared to vehicle (open bars).
. The cells were washed with PBS, incubated in 0.1% fetal bovine serum (FBS) for 16 hours and incubated in glucose-free 0.1% FBS-containing medium for up to 4 days in the presence of vehicle or 1 nM Compound C0105. The cells in the entire well were collected by centrifugation. […] The protein concentrations were measured by the Bradford method.
The cells were homogenized and the obtained homogenates were centrifuged to remove nucleus and mitochondria. […] The level of apoptotic cell death was determined using Western blotting in 50 μg solubilized cell lysates with antibodies against cleaved PARP-1 (Asp^214) and caspase-3 (Asp^175), both at 1:1000 dilution. […] Bands at the relevant molecular masses of Ki67 and PCNA were quantified by densitometric scan. Membranes were stripped, washed 5× in 0.1% PBST (2 minutes each wash) and the actin content analyzed by immunoblotting using monoclonal anti-actin to illustrate even loading.

CN1CCC2(CC1)NCC(=O)N2Cc1ccccc1 [Compound C0105]
Cell proliferation (Ki67 and PCNA levels) [1]: Inhibits Proliferation
GTP-bound K-ras (active K-ras) level [2]: reduced GTP-bound K-ras
GTP-bound K-ras (active K-ras) level [3]: reduced GTP-bound K-ras
GTP-bound K-ras (active K-ras) level [4]: reduced GTP-bound K-ras
GTP-bound K-ras (active K-ras) level [5]: reduced GTP-bound K-ras
Cell proliferation by [3H]thymidine incorporation (glioblastoma cells): reduces glioblastoma, melanoma and small-cell lung carcinoma cell proliferation
Cell proliferation by [3H]thymidine incorporation (melanoma cells [6]): reduces glioblastoma, melanoma and small-cell lung carcinoma cell proliferation
Cell proliferation by [3H]thymidine incorporation [7]: reduces glioblastoma, melanoma and small-cell lung carcinoma cell proliferation
Basal glucose uptake [8]: dose-dependent inhibition of basal glucose uptake
Basal glucose uptake [9]: dose-dependent inhibition of basal glucose uptake
Glucose deprivation-induced cell death by cleaved PARP-1 and caspase-3 (melanoma cells [10]): reduces glucose deprivation-induced cell death
